In patent US20250041298A1, “CDK4 INHIBITOR FOR THE TREATMENT OF CANCER” (Pfizer Inc., priority 2021, published 2025):
Several values for one entry are separate records, joined by “and”; a condition that tells them apart may be missing. Identical values can stand only once.

How the values were obtained:
Assay type in all cases: cell-based, human
[1] = tested on: HR+, HER2- T47D breast cancer spheroids; test: Multicellular tumor spheroid growth inhibition (SGI), T47D
Procedure: (§1) The purpose of this example was to evaluate the combination effect of PF-07220060 and endocrine therapy in multicellular tumor spheroid growth inhibition (SGI). To model the characteristics and cellular behavior of human tumors, the activity of PF-07220060 was evaluated in three dimensional MCTS models of HR+ breast cancer and AR+ prostate cancer following PF-07220060 treatment as a single agent and in combination with fulvestrant • 1) in HR+, HER2-T47D breast cancer spheroids. • 2) in HR+, HER2+BT474 breast cancer spheroids, • 3) in BT474 spheroids, and • 4) in AR+ prostate carcinoma cell line (LNCaP) prostate cancer spheroids. Spheroids were treated with increasing concentrations of 100, 300, or 1000 nM PF-07220060 and compared to palbociclib at the clinically relevant concentration of 30 nM. Single agent PF-07220060 inhibited spheroid growth in a dose-dependent manner, with highest efficacy (86% SGI over the duration of treatment with 1000 nM) shown in the T47D BC spheroid model (Table 1). Combining 100 nM PF-07220060 with 1 nM fulvestrant in T47D cells increased SGI to 96% compared to either single agent alone (57 to 67% SGI with 100 nM PF-07220060 or 79% SGI with fulvestrant) (Table 1). BT474 spheroids were relatively less sensitive to PF-07220060 resulting in 52% SGI at 1000 nM.

[2] = tested on: HR+, HER2+ BT474 breast cancer spheroids; test: Multicellular tumor spheroid growth inhibition (SGI), BT474
Procedure: as §1

[3] = tested on: AR+ prostate carcinoma cell line (LNCaP) prostate cancer spheroids; test: Multicellular tumor spheroid growth inhibition (SGI), LNCaP
Procedure: The purpose of this example was to evaluate the combination effect of PF-07220060 and endocrine therapy in multicellular tumor spheroid growth inhibition (SGI). To model the characteristics and cellular behavior of human tumors, the activity of PF-07220060 was evaluated in three dimensional MCTS models of HR+ breast cancer and AR+ prostate cancer following PF-07220060 treatment as a single agent and in combination with fulvestrant • 1) in HR+, HER2-T47D breast cancer spheroids. • 2) in HR+, HER2+BT474 breast cancer spheroids, • 3) in BT474 spheroids, and • 4) in AR+ prostate carcinoma cell line (LNCaP) prostate cancer spheroids. Spheroids were treated with increasing concentrations of 100, 300, or 1000 nM PF-07220060 and compared to palbociclib at the clinically relevant concentration of 30 nM.

Q: CC(=O)c1c(C)c2cnc(Nc3ccc(N4CCNCC4)cn3)nc2n(C2CCCC2)c1=O [Palbociclib, reference compound] was tested. Which SGI ([1]; 30 nM single agent) did it give?
A: 38% and 49%

Q: And the SGI ([2]; 30 nM single agent)?
A: 0% and 5% and 1%

Q: What about the SGI ([3]; 30 nM single agent) of the same compound?
A: 5%

Q: What about the SGI ([3]; 100 nM single agent) of the same compound?
A: 24%

Q: Which SGI ([1]; 1 nM single agent) does the source give for C[C@]12CC[C@@H]3c4ccc(O)cc4C[C@@H](CCCCCCCCC[S+]([O-])CCCC(F)(F)C(F)(F)F)[C@H]3[C@@H]1CC[C@@H]2O (stereo partly drawn) [Fulvestrant, reference compound] here?
A: 79%

Q: What about the SGI ([2]; 100 nM single agent) of the same compound?
A: 10%
